Tests used:
[1] = Volatility: loss of dicamba from aqueous tank mix on petri dish; assay type: physicochemical; conditions: 70° C., 24 h, atmospheric pressure
Experimental: The volatility was determined by analyzing the loss of material by HLPL at 70° C. after 24 h at atmospheric pressure. A sample of the aqueous tank mix (300 l/ha) was placed on the petri dish with a defined area (corresponding to a desired field application rate, such as 500 g/ha pesticide).
The application rate was 500 g/ha dicamba (free acid), 1000 g/ha potassium glyphosate, 300 g/ha Genamin® T050 (“Ad2”, 300 g/ha Preference® (“Ad3”) and optionally 250, 500 or 1000 g/ha K2CO3. Deionised water (hardness <1° dH) was used to prepare the samples. Dicamba BAPMA refers to the bis(3-aminopropyl)methylamine salt of dicamba.

pH of tank mix = assay type: physicochemical
Experimental: The liquid aqueous composition may have a pH value of at least pH 4.0, preferably of at least 6.0, better of at least 7.0, more preferably of at least 7.5, especially preferred of at least 8.0 and in particular of at least 8.5. The liquid aqueous composition may have a pH of up to 13.0, preferably of up to 11.0 and in particular of up to 9.0. The pH value is usually determined at 20° C.

SMILES | Loss of dicamba, Loss (wt %) ([1]; application rate 500 g/ha dicamba, tank mix 300 l/ha) | pH of tank mix (pH of tank mix; Example 6 tank mix, application rate 500 g/ha dicamba, 300 l/ha) | Loss of dicamba, Loss (wt %) ([1]; 500 g/ha dicamba (free acid), 1000 g/ha potassium glyphosate where Gly-K, deionised water) | pH of tank mix (pH of tank mix; Example 7 tank mix, 500 g/ha dicamba (free acid), deionised water (hardness <1° dH))
COc1c(Cl)ccc(Cl)c1C(=O)O [Dicamba free acid, dicamba] | 80 | 3.0 | – | –
CN(CCCN)CCCN.COc1c(Cl)ccc(Cl)c1C(=O)O [Dicamba BAPMA, bis(3-aminopropyl)methylamine salt of dicamba] | – | – | <1 | 6.3

— patent US20140171319A1, “Aqueous Composition Comprising a Pesticide and a Base Selected from an Alkali Salt of Hydrogencarbonate” (BASF SE, priority 2011, published 2014)
